Assay [1] has as its target T1, 5-hydroxytryptamine receptor 1D (Homo sapiens, UniProt P28221). The experiment in a line: Percent efficacy relative to 5-HT treatment of CHO cells expressing 5-HT 1d receptor. It counts as functional, cell-based.
Assay [2] has as its system Rattus norvegicus. The experiment in a line: Concentration of compound in rat plasma obtained from cardiac (systemic) blood samples following peroral administration at 3 mg/kg. It counts as functional, organism-based. More on the design: dose 3 mg/kg.
Assay [3] concerns the target Serotonin 1 receptors; 5-HT1B & 5-HT1D (Homo sapiens) (UniProt P28222+P28221). The experiment in a line: Relative binding to serotonin 5-HT1D and 5-HT1B receptors. It counts as protein assay.
Assay [4] has as its system Rattus norvegicus. Nature of the assay: Concentration of compound in rat plasma obtained from hepatic portal vein(hpv) blood samples following peroral administration at 3 mg/kg. It counts as functional, organism-based. More on the design: dose 3 mg/kg.
For assay [5], the target named is T1, 5-hydroxytryptamine receptor 1D. Nature of the assay: Displacement of [3H]5-HT from human 5-hydroxytryptamine 1D receptor expressed in CHO cells. It counts as cell-based.
Assay [6] shares this target. The experiment in a line: Agonist induced [35S]GTP-gamma-S, binding in CHO cells expressing 5-HT 1d receptor. It counts as functional, cell-based.
The nature of assay [7]: The ionization constant (pKa) for the compound measured potentiometrically.

T1 sequence (P28221 whole entry): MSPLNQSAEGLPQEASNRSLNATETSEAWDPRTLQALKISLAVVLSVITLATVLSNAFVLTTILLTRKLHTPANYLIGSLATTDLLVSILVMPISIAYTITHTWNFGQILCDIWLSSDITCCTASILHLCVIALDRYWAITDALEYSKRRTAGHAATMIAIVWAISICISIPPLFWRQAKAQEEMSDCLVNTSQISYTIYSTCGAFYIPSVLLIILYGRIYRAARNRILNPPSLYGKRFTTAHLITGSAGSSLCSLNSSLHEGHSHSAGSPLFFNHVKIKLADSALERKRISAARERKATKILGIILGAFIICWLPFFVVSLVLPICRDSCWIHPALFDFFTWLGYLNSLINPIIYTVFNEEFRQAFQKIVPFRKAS

For `c1ccc(CC2CCN(CCCc3c[nH]c4ccc(-n5cnnc5)cc34)CC2)cc1`, the Efficacy in assay [1] was 62%. For the same compound, the Concentration is < 2 ng/mL with Rattus norvegicus [2] and 25 ng/mL in the assay on Rattus norvegicus [4]. This compound also registered a Selectivity in assay [3] of 57. Moreover, in assay [5], the IC50 worked out at 0.35 nM. The half-maximal effective concentration (EC50) in assay [6] came to 0.6 nM. The same compound yielded a pKa in assay [7] of 9.7.
Take `CN(Cc1ccccc1)[C@@H]1CCN(CCCc2c[nH]c3ccc(-n4cnnc4)cc23)C[C@@H]1F`: the Concentration stood at 2 ng/mL with Rattus norvegicus [2] and 216 ng/mL in the assay on Rattus norvegicus [4]. Besides, in assay [3], the Selectivity was 18. The same compound yielded an IC50 in assay [5] of 13 nM. Moreover, the pKa in assay [7] came out at 8.
Compound `OC[C@H](NC1CCN(CC(F)Cc2c[nH]c3ccc(-n4cnnc4)cc23)CC1)c1ccc(F)cc1` (stereo partly specified) displayed an Efficacy in assay [1] of 95%. In addition, the results for the Concentration with Rattus norvegicus [2] and in the assay on Rattus norvegicus [4] were < 1 ng/mL and 5 ng/mL, respectively. Besides, the Selectivity in assay [3] amounted to 225. Further, in assay [5], the IC50 was determined as 1.4 nM. The EC50 in assay [6] was 1.7 nM.
On to `FC(Cc1c[nH]c2ccc(-n3cnnc3)cc12)CN1CCC(Cc2ccccc2)CC1` (stereo unspecified), for which, in assay [1], the Efficacy came out at 61%. Also, the Concentration was determined as 196 ng/mL in the assay on Rattus norvegicus [2] and 781 ng/mL in the assay on Rattus norvegicus [4]. This compound also displayed a Selectivity in assay [3] of 65. The IC50 in assay [5] stood at 0.95 nM. For the same compound, the EC50 in assay [6] amounted to 11 nM. Moreover, in assay [7], the pKa is 8.7.
In turn, `OC[C@H](NC1CCN(CCCc2c[nH]c3ccc(-n4cnnc4)cc23)CC1)c1ccc(F)cc1` showed an Efficacy in assay [1] of 104%. Further, the Concentration with Rattus norvegicus [2] and in the assay with Rattus norvegicus [4] was < 2 ng/mL throughout. Besides, the Selectivity in assay [3] amounted to 206.
Consider `Fc1cccc(CCN2CCN(CC(F)Cc3c[nH]c4ccc(-n5cnnc5)cc34)CC2)c1` (stereo unspecified), for which the Efficacy in assay [1] was 98%. In assay [3], this compound came in with a Selectivity of 324. In assay [5], the IC50 was 3.7 nM. This compound returned an EC50 in assay [6] of 4.4 nM.
On to `CN(Cc1ccccc1)[C@H]1CCN(CCCc2c[nH]c3ccc(-n4cnnc4)cc23)C[C@H]1F`, for which the Selectivity in assay [3] amounted to 6. In assay [5], this compound had a concentration for half-maximal inhibition (IC50) of 2.2 nM.
For the compound `CN(Cc1ccccc1)C1CCN(CC(F)Cc2c[nH]c3ccc(-n4cnnc4)cc23)CC1` (stereo unspecified), in assay [1], the Efficacy is 104%. In addition, the Concentration turned out to be 2 ng/mL in the assay with Rattus norvegicus [2] and 57 ng/mL in the assay on Rattus norvegicus [4]. The Selectivity in assay [3] worked out at 230. In assay [5], this compound yielded an IC50 of 5.4 nM. Further, the EC50 in assay [6] was 18 nM.
`CN(Cc1ccccc1)C1CCN(CCCc2c[nH]c3ccc(-n4cnnc4)cc23)CC1` had an Efficacy in assay [1] of 94%. The Concentration in the assay on Rattus norvegicus [2] is < 1 ng/mL; in the assay with Rattus norvegicus [4], 4 ng/mL. The Selectivity in assay [3] was found to be 66.
In turn, `Fc1cccc(CCN2CCN(CCCc3c[nH]c4ccc(-n5cnnc5)cc34)CC2)c1` returned a Selectivity in assay [3] of 125.
Regarding `c1ccc(CN2CCN(CCCc3c[nH]c4ccc(-n5cnnc5)cc34)CC2)cc1`, the Concentration was found to be 42 ng/mL in the assay on Rattus norvegicus [2] and 178 ng/mL with Rattus norvegicus [4]. In assay [3], the Selectivity amounted to 40. This compound also yielded a pKa in assay [7] of 8.2.
The compound `Fc1cccc(CCC2(F)CCN(CCCc3c[nH]c4ccc(-n5cnnc5)cc34)CC2)c1` came in with an Efficacy in assay [1] of 71%. In assay [3], this compound gave a Selectivity of 30. The half-maximal inhibitory concentration (IC50) in assay [5] is 0.75 nM. The EC50 in assay [6] amounted to 5.1 nM.
As for `FC1(Cc2ccccc2)CCN(CCCc2c[nH]c3ccc(-n4cnnc4)cc23)CC1`, the Efficacy in assay [1] was found to be 58%. For the same compound, the results for the Concentration with Rattus norvegicus [2] and in the assay with Rattus norvegicus [4] were 52 ng/mL and 570 ng/mL, respectively. In assay [3], this compound displayed a Selectivity of 16. Also, the IC50 in assay [5] was found to be 1 nM. The compound further displayed a concentration giving a half-maximal response (EC50) in assay [6] of 0.5 nM. The pKa in assay [7] is 8.8.

Source of the values: ChEMBL document CHEMBL1131027, “Enhancement of oral absorption in selective 5-HT1D receptor agonists: fluorinated 3-[3-(piperidin-1-yl)propyl]indoles” (J Med Chem, 1998).
